Where two headings read alike, the source gives them in different places.
Experiments:
[1] = assay type: physicochemical; conditions: for % Estriol extracted, Tracer only: ^125I estriol, no unlabelled estriol; for % Estriol extracted, with 250 ng/ml: with 250 ng/ml unlabelled estriol
Text: The choice of the preferred solvent for each system is made by carrying out a simple experiment in each case as illustrated hereinafter.

[2] = cited from earlier work
[3] = tested on: anti-THC antiserum, R-41Va; assay: THC RIA with solvent extraction or charcoal separation (Example 7); assay type: binding; conditions: for % B/Bo Charcoal: dextran-coated charcoal
Method: An assay using the solvent extraction method was developed for tetrahydrocannabinol (THC) metabolites using a (^3 H)-THC tracer (Amersham). All assay components were prepared in tris-maleate buffer (pH 7.3) containing 0.2% PVP and 0.1% Triton X450 (trademark of Rohm and Haas). […]. The solvent, 500 μl, was added to the assay tubes and vortexed for 20-30 seconds. […]. The following Table 5 summarizes the results, expressed as % B/Bo for the three experiments.

[4] = tested on: phenobarbitone antiserum R-66X; assay: Phenobarbitone RIA with solvent extraction (Example 6); assay type: binding; conditions: mean of duplicates; for % B/Bo MIBK: methyl isobutyl ketone; for % B/Bo TBME: tert-butyl methyl ether
Method: The components used for a phenobarbitone RIA were a (^3 H) phenobarbitone tracer (N.E.N), a phenobarbitone antiserum R-66X (Technion) and tris-maleate assay buffer (pH 7.3, 0.078M Tris, 0.035M maleic acid) containing 0.1% PVP (polyvinyl pyrrolidone).
The tracrer, 100 μl (approx. 10 nono Ci/tube) was added to test-tubes followed by the addition of 50 μl phenobarbitone standards and 100 μl of diluted antiserum. All test-tubes were incubated overnight at 4° C. After incubation, 0.5 ml of solvent (tert-butyl methyl ether, TBME in one experiment and, MIBK in a parallel experiment) were added to each assay tube and vortexed for 20-30 seconds. After phase separation on standing, the aqueous phase was transferred to scintillation vials for radioactivity determination. The following Table 4, summarizes mean values (of duplicates) expressed as % B/Bo.

RIA kit for estradiol = assay: Estradiol 17β (^3H) RIA, kit protocol vs solvent extraction (Example 5); assay type: binding; conditions: for % B/Bo Expt. A (kit): kit protocol; for % B/Bo Expt. B (solvent extn.): solvent extraction
Method: A commercially available (^3 H) RIA kit for estradiol supplied by Isopac was tested by the solvent extraction method as follows:
All kit components were prepared according to kit directions. One experiment (A) was carried out exactly according to the kit protocol. A second, parallel experiment (B) was performed according to kit protocol up to, and including, the incubation step. […] After phase separation (about 10 minutes) the upper solvent phase, containing the free estradiol, was transferred to scintillation vials to which 5 ml of scintillation liquid (Instagel II, trademark of Packard) were added and the radioactivity determined.

**Q.** Which “% Estriol extracted, Tracer only” value [1] does the source give for `ClCCl` [Dichloromethane, dichloromethane] here?
**A.** The value was 45-47%.

**Q.** And the “% solubility in water” value ([2]; water)?
**A.** Its value is 2%.

**Q.** Which “% Estriol extracted, Tracer only” value [1] does the source give for `CCN(CC)CC` [Triethyl amine] here?
**A.** Its value is 86-91%.

**Q.** And the “% Estriol extracted, with 250 ng/ml” value [1]?
**A.** Its value is 86-90%.

**Q.** For `ClC(Cl)(Cl)Cl` [Carbon tetrachloride, carbon tetrachloride], which “% Estriol extracted, Tracer only” value [1] is on record?
**A.** The value was 35-38%.

**Q.** And the “% Estriol extracted, with 250 ng/ml” value [1]?
**A.** The value was 38-40%.

**Q.** What about the “% solubility in water” value ([2]; in water) of the same molecule?
**A.** The value was 0.08%.

**Q.** For `CCCCCc1cc(O)c2c(c1)OC(C)(C)[C@@H]1CCC(C)=C[C@@H]21` [THC, tetrahydrocannabinol], which “% B/Bo MIBK” value ([3]; standard 1 ng/ml) is on record?
**A.** The value was 98%.

**Q.** And the “% B/Bo Charcoal” value ([3]; standard 1 ng/ml)?
**A.** The value was 98%.

**Q.** And the “% B/Bo t-amyl alcohol” value ([3]; standard 1 ng/ml)?
**A.** The value was 90%.

**Q.** And the “% B/Bo MIBK” value ([3]; standard 2 ng/ml)?
**A.** Its value is 84%.

**Q.** What about the “% B/Bo t-amyl alcohol” value ([3]; standard 2 ng/ml) of the same molecule?
**A.** The value was 86%.

**Q.** And the “% B/Bo MIBK” value ([3]; standard 4 ng/ml)?
**A.** Its value is 68%.

**Q.** What about the “% B/Bo Charcoal” value ([3]; standard 4 ng/ml) of the same molecule?
**A.** The value was 86%.

**Q.** And the “% B/Bo t-amyl alcohol” value ([3]; standard 4 ng/ml)?
**A.** Its value is 77%.

**Q.** And the “% B/Bo MIBK” value ([3]; standard 10 ng/ml)?
**A.** Its value is 30%.

**Q.** And the “% B/Bo Charcoal” value ([3]; standard 10 ng/ml)?
**A.** Its value is 55%.

**Q.** And the “% B/Bo t-amyl alcohol” value ([3]; standard 10 ng/ml)?
**A.** Its value is 36%.

**Q.** And the “% B/Bo MIBK” value ([3]; standard 20 ng/ml)?
**A.** The value was 18%.

**Q.** What about the “% B/Bo Charcoal” value ([3]; standard 20 ng/ml) of the same molecule?
**A.** Its value is 32%.

**Q.** What about the “% B/Bo t-amyl alcohol” value ([3]; standard 20 ng/ml) of the same molecule?
**A.** The value was 15%.

**Q.** And the “% B/Bo MIBK” value ([3]; standard 40 ng/ml)?
**A.** The value was 8%.

**Q.** And the “% B/Bo Charcoal” value ([3]; standard 40 ng/ml)?
**A.** The value was 21%.

**Q.** What about the “% B/Bo t-amyl alcohol” value ([3]; standard 40 ng/ml) of the same molecule?
**A.** Its value is 6%.

**Q.** What does the source list for `CCC1(c2ccccc2)C(=O)NC(=O)NC1=O` [Phenobarbitone, phenobarbitone]?
**A.** % B/Bo MIBK ([4]; standard 5 ng/ml): 73.0%; % B/Bo TBME ([4]; standard 5 ng/ml): 96.5%; % B/Bo MIBK ([4]; standard 10 ng/ml): 63.0%; % B/Bo TBME ([4]; standard 10 ng/ml): 79.0%; % B/Bo MIBK ([4]; standard 25 ng/ml): 45.0%; % B/Bo TBME ([4]; standard 25 ng/ml): 52.0%; % B/Bo MIBK ([4]; standard 50 ng/ml): 30.0%; % B/Bo TBME ([4]; standard 50 ng/ml): 30.0%; % B/Bo MIBK ([4]; standard 100 ng/ml): 19.0%; % B/Bo TBME ([4]; standard 100 ng/ml): 23.0%

**Q.** What does the source list for `ClCc1ccccc1` [Benzyl chloride]?
**A.** % Estriol extracted, Tracer only [1]: 78-80%; % Estriol extracted, with 250 ng/ml [1]: 76-78%; % solubility in water ([2]; in water): 0.05%

**Q.** What does the source list for `CCOC(C)=O` [Ethyl acetate, ethyl acetate]?
**A.** % Estriol extracted, Tracer only [1]: 90-94%; % Estriol extracted, with 250 ng/ml [1]: 90-92%; % solubility in water ([2]; in water): 3.3%

**Q.** For `C[C@]12CC[C@@H]3c4ccc(O)cc4CC[C@H]3[C@@H]1CC[C@@H]2O` [Estradiol, Estradiol 17β], which “% B/Bo Expt. A (kit)” value (RIA kit for estradiol; standard 25.0 pg/ml) is on record?
**A.** Its value is 89.0%.

**Q.** And the “% B/Bo Expt. B (solvent extn.)” value (RIA kit for estradiol; standard 25.0 pg/ml)?
**A.** Its value is 89.0%.

**Q.** What about the “% B/Bo Expt. A (kit)” value (RIA kit for estradiol; standard 50.0 pg/ml) of the same molecule?
**A.** Its value is 85.0%.

**Q.** And the “% B/Bo Expt. B (solvent extn.)” value (RIA kit for estradiol; standard 50.0 pg/ml)?
**A.** Its value is 76.0%.

**Q.** What about the “% B/Bo Expt. A (kit)” value (RIA kit for estradiol; standard 100.0 pg/ml) of the same molecule?
**A.** The value was 59.0%.

**Q.** And the “% B/Bo Expt. B (solvent extn.)” value (RIA kit for estradiol; standard 100.0 pg/ml)?
**A.** Its value is 40.0%.

**Q.** What about the “% B/Bo Expt. A (kit)” value (RIA kit for estradiol; standard 200.0 pg/ml) of the same molecule?
**A.** Its value is 40.0%.

**Q.** And the “% B/Bo Expt. B (solvent extn.)” value (RIA kit for estradiol; standard 200.0 pg/ml)?
**A.** Its value is 23.0%.

**Q.** And the “% B/Bo Expt. A (kit)” value (RIA kit for estradiol; standard 400.0 pg/ml)?
**A.** The value was 21.0%.

**Q.** What about the “% B/Bo Expt. B (solvent extn.)” value (RIA kit for estradiol; standard 400.0 pg/ml) of the same molecule?
**A.** The value was 14.0%.

**Q.** What does the source list for `CC(=O)CC(C)C` [Methyl isobutyl ketone, methyl isobutyl ketone]?
**A.** % Estriol extracted, Tracer only [1]: 91-94%; % Estriol extracted, with 250 ng/ml [1]: 90-94%; % solubility in water ([2]; in water): 1.9%

From patent publication US4645747A, “Specific binding assay technique” (priority 1979, dated 1987)
